The test addresses T1, Human BCL-XL protein (N-terminal HiBiT tagged BCL-XL expressed in HT1080 cells) (Homo sapiens, UniProt Q07817).
T1 construct: expressed in transfected cells; host or cells: HT-1080 (ATCC CCL-121), stably transduced with lentivirus pLV-UBC-N-HiBiT-BCL-XL-PGK-puro and selected with puromycin
The experiment in a line: HiBiT Based Degradation Assay. In kind it is cell-based. The note with it: 24 hours incubation; for DC50: BCL-XL degradation, HT1080 cells expressing N-HiBiT-BCL-XL, normalized with DMSO control, geometric mean for multiple data points, read-out: EC50 (24 h); for Ymin (24 h): bottom of BCL-XL degradation curve (remaining HiBiT-BCL-XL signal vs DMSO control), HT1080 cells. The source says: HiBiT Based Degradation Assay
Human BCL-XL protein coding open reading frame fused with N-terminal HiBiT coding sequence (N-HiBiT-BCL-XL) was synthesized from Integrated DNA Technologies (IDT). Next, N-HiBiT-BCL-XL sequence was cloned into pLV-UBC-PGK-Puro, a lentivirus plasmid purchased from Vectorbuilder, to generate pLV-UBC-N-HiBiT-BCL-XL-PGK-puro. Lentiviral particles were generated from Lenti-X™ 293T cells (Clontech) by co-transfection of pLV-UBC-N-HiBiT-BCL-XL-PGK-puro plasmids and lentiviral packaging plasmid mix (Cellecta). HT-1080 [HT1080](ATCC CCL-121™) cells were infected with the lentivirus, and HT1080 cells stably integrated with the lentiviral vector were established by incubation with 1 μg/mL puromycin (Thermofisher). HT1080 cells expressing N-terminal HiBiT tagged BCL-XL were dispensed into 384-well plates pre-spotted with compounds at varying concentrations. Three thousand cells were seeded into each well in 40 μL of RPMI 1640 media. After 24 hours of incubation at 37° C. with 5% CO2, 30 μL of the NANO-GLO® HiBiT Lytic Detection System working solution (Promega) was added to each well and incubated at room temperature for 30 min. After incubation, luminescence was read on a PHERAstar FSX Plate Reader (BMG). BCL-XL degradation at each indicated concentration was normalized with DMSO control. The BCL-XL degradation curves were plotted using a four-parameter logistic model. For compounds displaying hook effects, curve fitting was performed using bottom point of hook curves (i.e., the point of Ymin) as bottom plateau to calculate EC50. For compounds with multiple data points, the geometric mean is presented.
(In general: With HiBiT, luminescence reflects the tagged protein that the partner subunit can reach.)

Structures are written as SMILES.

T1 sequence (Q07817 whole entry): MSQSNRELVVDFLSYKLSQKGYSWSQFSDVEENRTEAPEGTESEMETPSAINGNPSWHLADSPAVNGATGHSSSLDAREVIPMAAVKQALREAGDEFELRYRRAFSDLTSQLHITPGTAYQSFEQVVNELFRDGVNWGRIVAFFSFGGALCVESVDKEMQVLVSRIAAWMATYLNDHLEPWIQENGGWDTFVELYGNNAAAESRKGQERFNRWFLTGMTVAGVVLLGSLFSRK

Take `Cc1cc(OC[C@@H]2C[C@H]2C2CCN(CC(=O)Nc3ccc4c(C5CCC(=O)NC5=O)nn(C)c4c3)CC2)ccc1-c1ccc(N2CCc3cccc(C(=O)Nc4nc5ccccc5s4)c3C2)nc1C(=O)O` (single isomer, unassigned) [Compound 1003b]: the DC50 was below 10 nM and the “Ymin (24 h)” value is “B (30% ≤ Ymin < 50%)”.
The corresponding values for `Cc1cc(OC[C@H]2C[C@H]2C2CCN(CC(=O)Nc3ccc4c(C5CCC(=O)NC5=O)nn(C)c4c3)CC2)ccc1-c1ccc(N2CCc3cccc(C(=O)Nc4nc5ccccc5s4)c3C2)nc1C(=O)O` (single isomer, unassigned) [Compound 1003c] are below 10 nM and “A (Ymin < 30%)”.
On to `Cc1cc(OC[C@@H]2C[C@@H]2C2CCN(CC(=O)Nc3ccc4c(C5CCC(=O)NC5=O)nn(C)c4c3)CC2)ccc1-c1ccc(N2CCc3cccc(C(=O)Nc4nc5ccccc5s4)c3C2)nc1C(=O)O` (single isomer, unassigned) [Compound 1003d], for which the DC50 was below 10 nM and the “Ymin (24 h)” value is listed as “A (Ymin < 30%)”.
Consider `Cc1c(OC[C@H]2C[C@@H]2CC2CCN(CC(=O)Nc3ccc4c(C5CCC(=O)NC5=O)nn(C)c4c3)CC2)cccc1-c1ccc(N2CCc3cccc(C(=O)Nc4nc5ccccc5s4)c3C2)nc1C(=O)O` (single isomer, unassigned) [Compound 1004a], for which the DC50 is 10 to 100 nM and the “Ymin (24 h)” value is given as “B (30% ≤ Ymin < 50%)”.
The corresponding values for `Cc1c(OC[C@@H]2C[C@H]2CC2CCN(CC(=O)Nc3ccc4c(C5CCC(=O)NC5=O)nn(C)c4c3)CC2)cccc1-c1ccc(N2CCc3cccc(C(=O)Nc4nc5ccccc5s4)c3C2)nc1C(=O)O` (single isomer, unassigned) [Compound 1004b] are 10 to 100 nM and “B (30% ≤ Ymin < 50%)”.
`Cc1c(OC[C@@H]2C[C@@H]2CC2CCN(CC(=O)Nc3ccc4c(C5CCC(=O)NC5=O)nn(C)c4c3)CC2)cccc1-c1ccc(N2CCc3cccc(C(=O)Nc4nc5ccccc5s4)c3C2)nc1C(=O)O` (single isomer, unassigned) [Compound 1004c]: the DC50 is below 10 nM and the “Ymin (24 h)” value is on record as “B (30% ≤ Ymin < 50%)”.
As for `Cc1c(OC[C@H]2C[C@H]2CC2CCN(CC(=O)Nc3ccc4c(C5CCC(=O)NC5=O)nn(C)c4c3)CC2)cccc1-c1ccc(N2CCc3cccc(C(=O)Nc4nc5ccccc5s4)c3C2)nc1C(=O)O` (single isomer, unassigned) [Compound 1004d], the DC50 is 10 to 100 nM and the “Ymin (24 h)” value is listed as “B (30% ≤ Ymin < 50%)”.
Turning to `Cc1c(OCCCC2CCN(CC(=O)Nc3ccc4c(C5CCC(=O)NC5=O)nn(C)c4n3)CC2)cccc1-c1ccc(N2CCc3cccc(C(=O)Nc4nc5ccccc5s4)c3C2)nc1C(=O)O` (stereo not shown) [Compound 101], the DC50 lay within 10 to 100 nM and the “Ymin (24 h)” value is given as “C (50% ≤ Ymin < 70%)”.
Taken in the same sequence, the figures for `COc1cc2c(C3CCC(=O)NC3=O)nn(C)c2cc1NC(=O)CN1CCC(CCCOc2ccc(-c3ccc(N4CCc5cccc(C(=O)Nc6nc7ccccc7s6)c5C4)nc3C(=O)O)c(C)c2)CC1` (stereo not shown) [Compound 103, 6-[8-(1,3-benzothiazol-2-ylcarbamoyl)-3,4-dihydro-1H-isoquinolin-2-yl]-3-[4-[3-[1-[2-[[3-(2,6-dioxo-3-piperidyl)-5-methoxy-1-methyl-indazol-6-yl]amino]-2-oxo-ethyl]-4-piperidyl]propoxy]-2-methyl-phenyl]pyridine-2-carboxylic acid] were 100 to 1000 nM and “B (30% ≤ Ymin < 50%)”.
Taken in the same sequence, the figures for `COc1c(NC(=O)CN2CCC(CCCOc3cccc(-c4ccc(N5CCc6cccc(C(=O)Nc7nc8ccccc8s7)c6C5)nc4C(=O)O)c3C)CC2)ccc2c(C3CCC(=O)NC3=O)nn(C)c12` (stereo not shown) [Compound 104, 6-[8-(1,3-benzothiazol-2-ylcarbamoyl)-3,4-dihydro-1H-isoquinolin-2-yl]-3-[3-[3-[1-[2-[[3-(2,6-dioxo-3-piperidyl)-7-methoxy-1-methyl-indazol-6-yl]amino]-2-oxo-ethyl]-4-piperidyl]propoxy]-2-methyl-phenyl]pyridine-2-carboxylic acid] were 10 to 100 nM and “B (30% ≤ Ymin < 50%)”.
As to `COc1c(NC(=O)CN2CCC(CCCOc3ccc(-c4ccc(N5CCc6cccc(C(=O)Nc7nc8ccccc8s7)c6C5)nc4C(=O)O)c(C)c3)CC2)ccc2c(C3CCC(=O)NC3=O)nn(C)c12` (stereo not shown) [Compound 105, 6-[8-(1,3-benzothiazol-2-ylcarbamoyl)-3,4-dihydro-1H-isoquinolin-2-yl]-3-[4-[3-[1-[2-[[3-(2,6-dioxo-3-piperidyl)-7-methoxy-1-methyl-indazol-6-yl]amino]-2-oxo-ethyl]-4-piperidyl]propoxy]-2-methyl-phenyl]pyridine-2-carboxylic acid], the DC50 lay in the range of 10 to 100 nM and the “Ymin (24 h)” value was “A (Ymin < 30%)”.
For `Cc1c(OCCCC2CCN(CC(=O)Nc3ccc4c(C5CCC(=O)NC5=O)nn(C)c4c3)CC2)cccc1-c1ccc(N2CCc3ccnc(C(=O)Nc4nc5ccccc5s4)c3C2)nc1C(=O)O` (stereo not shown) [Compound 106, 6-(8-(benzo[d]thiazol-2-ylcarbamoyl)-3,4-dihydro-2,7-naphthyridin-2(1H)-yl)-3-(3-(3-(1-(2-((3-(2,6-dioxopiperidin-3-yl)-1-methyl-1H-indazol-6-yl)amino)-2-oxoethyl)piperidin-4-yl)propoxy)-2-methylphenyl)picolinic acid], the DC50 is 10 to 100 nM and the “Ymin (24 h)” value is “B (30% ≤ Ymin < 50%)”.
Taken in the same sequence, the figures for `Cc1cc(OCCCC2(O)CCN(CC(=O)Nc3ccc4c(C5CCC(=O)NC5=O)nn(C)c4c3)CC2)ccc1-c1ccc(N2CCc3cccc(C(=O)Nc4nc5ccccc5s4)c3C2)nc1C(=O)O` (stereo not shown) [Compound 107, 6-(8-(benzo[d]thiazol-2-ylcarbamoyl)-3,4-dihydroisoquinolin-2(1H)-yl)-3-(4-(3-(1-(2-((3-(2,6-dioxopiperidin-3-yl)-1-methyl-1H-indazol-6-yl)amino)-2-oxoethyl)-4-hydroxypiperidin-4-yl)propoxy)-2-methylphenyl)picolinic acid] were below 10 nM and “A (Ymin < 30%)”.
Taken in the same sequence, the figures for `Cc1c(OCCCC2(O)CCN(CC(=O)Nc3ccc4c(C5CCC(=O)NC5=O)nn(C)c4c3)CC2)cccc1-c1ccc(N2CCc3cccc(C(=O)Nc4nc5ccccc5s4)c3C2)nc1C(=O)O` (stereo not shown) [Compound 108, 6-(8-(benzo[d]thiazol-2-ylcarbamoyl)-3,4-dihydroisoquinolin-2(1H)-yl)-3-(3-(3-(1-(2-((3-(2,6-dioxopiperidin-3-yl)-1-methyl-1H-indazol-6-yl)amino)-2-oxoethyl)-4-hydroxypiperidin-4-yl)propoxy)-2-methylphenyl)picolinic acid] were 10 to 100 nM and “B (30% ≤ Ymin < 50%)”.
With `Cc1cc(OCCCC2CCN(CC(=O)Nc3cc4c(cc3F)c(C3CCC(=O)NC3=O)nn4C)CC2)ccc1-c1ccc(N2CCc3cccc(C(=O)Nc4nc5ccccc5s4)c3C2)nc1C(=O)O` (stereo not shown) [Compound 109], the DC50 is 10 to 100 nM and the “Ymin (24 h)” value is listed as “C (50% ≤ Ymin < 70%)”.
Consider `Cc1cc(OC2CC3(CCN(CC(=O)Nc4ccc5c(C6CCC(=O)NC6=O)nn(C)c5c4)CC3)C2)ccc1-c1ccc(N2CCc3cccc(C(=O)Nc4nc5ccccc5s4)c3C2)nc1C(=O)O` (stereo not shown) [Compound 112, 6-[8-(1,3-benzothiazol-2-ylcarbamoyl)-3,4-dihydro-1H-isoquinolin-2-yl]-3-[4-[[7-[2-[[3-(2,6-dioxo-3-piperidyl)-1-methyl-indazol-6-yl]amino]-2-oxo-ethyl]-7-azaspiro[3.5]nonan-2-yl]oxy]-2-methyl-phenyl]pyridine-2-carboxylic acid], for which the DC50 was below 10 nM and the “Ymin (24 h)” value is listed as “A (Ymin < 30%)”.
Consider `Cc1c(OC2CC3(CCN(CC(=O)Nc4ccc5c(C6CCC(=O)NC6=O)nn(C)c5c4)CC3)C2)cccc1-c1ccc(N2CCc3cccc(C(=O)Nc4nc5ccccc5s4)c3C2)nc1C(=O)O` (stereo not shown) [Compound 113, 6-[8-(1,3-benzothiazol-2-ylcarbamoyl)-3,4-dihydro-1H-isoquinolin-2-yl]-3-[3-[[7-[2-[[3-(2,6-dioxo-3-piperidyl)-1-methyl-indazol-6-yl]amino]-2-oxo-ethyl]-7-azaspiro[3.5]nonan-2-yl]oxy]-2-methyl-phenyl]pyridine-2-carboxylic acid], for which the DC50 is below 10 nM and the “Ymin (24 h)” value is “B (30% ≤ Ymin < 50%)”.

Values taken from patent publication US20260216170A1, “TETRAHYDROISOQUINOLINE HETEROBIFUNCTIONAL BCL-XL DEGRADERS” (Treeline Biosciences, Inc., priority 2023, published 2026).
